The results in this text go back to ChEMBL document CHEMBL5233262, “Anti-inflammatory activity of naturally occuring diarylheptanoids - A review” (Bioorg Med Chem, 2021).

The structures appear in SMILES notation. pIC50: −log10 of the molar value. Converted amounts (≈) assume the structure as drawn.

For series [1], the system named is Rattus norvegicus. Briefly: Antiinflammatory activity in rat model of carrageenan-induced hind paw edema assessed as reduction in paw thickness at 100 mg/kg,ip 30mins before carrageenin exposure and measured after 3 hrs. It is filed as functional. Also noted: scale not given: the % may be the effect or the level left.
The test system of series [2] is Rattus norvegicus. Put plainly: Antiinflammatory activity in rat model of ethyl phenylpropiolate-induced ear edema assessed as reduction in ear thickness administered topically and measured after 30 mins. The format is functional. The note with it: 0.5 h.
Series [3] relates to Rattus norvegicus. Briefly: Antiinflammatory activity in rat model of ethyl phenylpropiolate-induced ear edema assessed as reduction in ear thickness administered topically and measured after 1 hr. It is filed as functional.
Series [4] deals with Mus musculus. Briefly: Antiinflammatory activity in ICR mouse model of thioacetamide-induced hepatotoxicity assessed as reduction in TNF-alpha expression at 1 mg/kg,ip pretreated with compound followed by TA induction and measured after 24 hrs by RT-PCR analysis. On the set-up: scale not given: the % may be the effect or the level left. It is filed as functional.
The subject of series [5] is Rattus norvegicus. Put plainly: Antiinflammatory activity in Wistar rat model of carrageenan-induced paw edema assessed as reduction in paw thickness at 10 mg/kg,po and measured after 5 hrs. Also noted: scale not given: the % may be the effect or the level left. The format is functional. A general note: The carrageenan paw model is a standard test of acute inflammation.

The subject of series [6] is Rattus norvegicus. Briefly: Antiinflammatory activity against Freund's complete adjuvant-induced arthritic Wistar rat model assessed as reduction in TNF-alpha level at 5 mg/kg,po measured after 28 days by ELISA. Also noted: scale not given: the % may be the effect or the level left. It is filed as functional. The conditions noted are these: time 28 day.
Series [7] relates to Rattus norvegicus. Briefly: Antiinflammatory activity against Freund's complete adjuvant-induced arthritic Wistar rat model assessed as reduction in IL-1beta level at 5 mg/kg,po measured after 28 days by ELISA. The format is functional. Also noted: scale not given: the % may be the effect or the level left. The conditions noted are these: time 28 day. For orientation: An ELISA detects its analyte on a solid surface through an enzyme-linked reagent.

Series [8] deals with Rattus norvegicus. Briefly: Antiinflammatory activity against Freund's complete adjuvant-induced arthritic Wistar rat model assessed as reduction in IL-6 level at 5 mg/kg,po measured after 28 days by ELISA. The format is functional. On the set-up: scale not given: the % may be the effect or the level left. The conditions noted are these: time 28 day.
The test system of series [9] is Rattus norvegicus. Put plainly: Antiinflammatory activity against Freund's complete adjuvant-induced arthritic Wistar rat model assessed as reduction in paw volume at 5 mg/kg,po measured after 28 days. It is filed as functional. Also noted: scale not given: the % may be the effect or the level left. The note with it: time 28 day.
A short description of series [10]: Antiinflammatory activity in C57BL/6 mouse BMDC cells assessed as inhibition of imiquimod-induced IL-1beta mRNA expression level at 10 uM and measured after 12 hrs by qpCR analysis. It is filed as functional. The conditions noted are these: C57BL/6, BMDC.
Series [11] can be described thus: Antiinflammatory activity in C57BL/6 mouse BMDC cells assessed as inhibition of imiquimod-induced IL-6 mRNA expression level at 10 uM and measured after 12 hrs by qpCR analysis. The conditions noted are these: C57BL/6, BMDC. The format is functional.
The nature of series [12]: Antiinflammatory activity in C57BL/6 mouse BMDC cells assessed as inhibition of imiquimod-induced IL-12 mRNA expression level at 10 uM and measured after 12 hrs by qpCR analysis. It is filed as functional. The conditions noted are these: C57BL/6, BMDC.
A short description of series [13]: Antiinflammatory activity in C57BL/6 mouse BMDC cells assessed as inhibition of imiquimod-induced IL-1beta expression level at 10 uM and measured after 12 hrs by western blot analysis. The conditions noted are these: C57BL/6, BMDC. The format is functional. (In general: Immunoblotting shows a protein as a band on a membrane.)
Series [14] in a line: Antiinflammatory activity in C57BL/6 mouse BMDC cells assessed as inhibition of imiquimod-induced IL-6 expression level at 10 uM and measured after 12 hrs by western blot analysis. It is filed as functional. The conditions noted are these: C57BL/6, BMDC.
The nature of series [15]: Antiinflammatory activity in C57BL/6 mouse BMDC cells assessed as inhibition of imiquimod-induced IL-12 expression level at 10 uM and measured after 12 hrs by western blot analysis. The format is functional. The conditions noted are these: C57BL/6, BMDC.
The subject of series [16] is RAW264.7. Briefly: Antiinflammatory activity in mouse RAW264.7 cells assessed as inhibition of LPS-induced NO production. The format is functional, cell-based.
For series [17], the system named is RAW264.7. Put plainly: Antiinflammatory activity in mouse RAW264.7 cells assessed as inhibition of LPS-induced TNFalpha production. It is filed as functional, cell-based.
Series [18] concerns Mus musculus. Briefly: Antiinflammatory activity in TPA-induced ear edema ICR mouse model assessed as inhibition of ear inflammation at 1 ug, TOP for 30 mins followed by TPA addition and measured after 6 hrs. The conditions noted are these: dose 1 µg, time 390 min, 6.5 h. It is filed as functional.
For series [19], the system named is RAW264.7. Put plainly: Antiinflammatory activity in mouse RAW264.7 cells assessed as inhibition of LPS-induced IL-1beta expression at 5 ug/ml. The format is functional.
Series [20] concerns RAW264.7. Briefly: Antiinflammatory activity in mouse RAW264.7 cells assessed as inhibition of LPS-induced TNFalpha expression at 5 ug/ml. It is filed as functional.
For series [21], the system named is RAW264.7. Briefly: Antiinflammatory activity in mouse RAW264.7 cells assessed as inhibition of LPS-induced COX-2 expression at 5 ug/ml. It is filed as functional.
The subject of series [22] is RAW264.7. Briefly: Antiinflammatory activity in mouse RAW264.7 cells assessed as inhibition of LPS-induced NF-kappaB expression at 5 ug/ml. It is filed as functional.
The subject of series [23] is RAW264.7. Put plainly: Antiinflammatory activity in mouse RAW264.7 cells assessed as inhibition of LPS-induced iNOS expression at 5 ug/ml. The format is functional.
In series [24] the test system is Zingiber officinale. Put plainly: Inhibition of prostaglandin biosynthesis in ginger. It is filed as functional, organism-based.
The subject of series [25] is RAW264.7. Briefly: Antiinflammatory activity in mouse RAW264.7 cells assessed as inhibition of LPS-induced NO production incubated for 20 hrs by Griess reagent based microplate reader analysis. The format is functional, cell-based. The note with it: RAW264.7, 20 h.
Series [26] deals with RAW264.7. Briefly: Cytotoxicity against mouse RAW264.7 cells assessed as reduction in cell viability at 0.07 to 0.1 mg/ml incubated for 24 hrs by MTT assay. The format is toxicity, cell-based. The conditions noted are these: raw264.7, 24 h, dose 0.07-0.1 mg/ml.
The test system of series [27] is HepG2. Put plainly: Antiinflammatory activity in human HepG2 cells assessed as inhibition of LPS-induced IL-1beta mRNA expression at 10 ug/ml preincubated for 1 hrs followed by LPS stimulation and measured after 24 hrs by qPCR analysis. The note with it: time 25 hrs. The format is functional.
Series [28] relates to HepG2. Put plainly: Antiinflammatory activity in human HepG2 cells assessed as inhibition of LPS-induced IL-6 mRNA expression at 10 ug/ml preincubated for 1 hrs followed by LPS stimulation and measured after 24 hrs by qPCR analysis. The format is functional. The conditions noted are these: time 25 hrs.
Series [29] concerns HepG2. Put plainly: Antiinflammatory activity in human HepG2 cells assessed as inhibition of LPS-induced TNFalpha mRNA expression at 10 ug/ml preincubated for 1 hrs followed by LPS stimulation and measured after 24 hrs by qPCR analysis. The format is functional. The note with it: time 25 hrs.
In series [30] the test system is RAW264.7. Briefly: Antiinflammatory activity in mouse RAW264.7 cells assessed as inhibition of LPS-induced NO production at 25 uM incubated for 24 hrs by Griess reagent based assay. It is filed as functional.
The nature of series [31]: Antiinflammatory activity in human PBMC cells assessed as inhibition of LPS-induced IL-1beta production at 25 uM incubated for 18 hrs by ELISA. The format is functional.
The nature of series [32]: Antiinflammatory activity in human PBMC cells assessed as inhibition of LPS-induced TNFalpha production at 25 uM incubated for 18 hrs by ELISA. The format is functional.
Series [33] deals with RAW264.7. Briefly: Antiinflammatory activity in mouse RAW264.7 cells assessed as inhibition of LPS-induced iNOS mRNA expression at 25 uM incubated for 12 hrs by PCR analysis. The format is functional.
In series [34] the test system is RAW264.7. Put plainly: Antiinflammatory activity in mouse RAW264.7 cells assessed as inhibition of LPS-induced COX-2 mRNA expression at 25 uM incubated for 12 hrs by PCR analysis. The format is functional.
The test system of series [35] is RAW264.7. Briefly: Antiinflammatory activity in mouse RAW264.7 cells assessed as inhibition of KLA-induced TNFalpha expression at 0.02 mg/ml and measured after 24 hrs by ELISA. The format is functional.

For `OC(/C=C/C=C/c1ccccc1)CCc1ccccc1` (configuration not stated), the Activity in series [1] came to 39%; in series [4] it was 53%. Also, the figures for the ID50 in series [2] and in series [3] were 129 µg and 312 µg, respectively.
For `O=C(O)Cc1ccccc1Nc1c(Cl)cccc1Cl` [DICLOFENAC], the Activity in series [5] is listed as 39.5%; in series [6], 47%; in series [7] it was 7%; in [8], 2.5%; in [9] it was 28.3%.
In the case of `O=C(/C=C/C=C/c1ccc(O)cc1)CCc1ccc(O)cc1`, the inhibition (commonly the change of the read-out against control, counted positive when it falls) at 10 µM stood at 86% in series [10]; 61% in [11]; 69% in series [12]; 56% in [13]; 58% in series [14]; 31% in series [15].
In the case of `COc1cc([C@@H](O)[C@@H](O)[C@@H](O)C[C@H](O)CCc2ccc(O)cc2)ccc1O`, in series [16], the IC50 (commonly the midpoint of a concentration-inhibition curve) was 32.6 µg/mL (≈ 86.1 µM). The pIC50 (as a rule, −log10 of the IC50, conventionally taken in molar units) in series [17] is under 4.00.
As for `O=C(/C=C/CCc1ccc(O)cc1)CCc1ccccc1`, the ID50 in series [18] amounted to 0.8 µmol. Also, the half-maximal inhibitory concentration (IC50) in series [16] amounted to 5 µg/mL (≈ 17.8 µM). The inhibition at 5 µg/mL stood at 70% in series [19]; 71% in series [20]; 69% in series [21]; 50% in [22]; 69% in series [23].
Take `COc1cc(CC/C=C/C(=O)CCc2ccccc2)ccc1O`: the negative-log IC50 (pIC50) is 4.30 in [24] and 6.22 in series [25]. In addition, the ID50 in series [18] came to 2.2 µmol. The Activity in series [26] is given as over 80%. Moreover, the inhibition at 10 µg/mL in [27] came out at 86%; in series [28], 52%; in series [29], 85%. Moreover, the inhibition at 25 µM was found to be 50% in series [30]; 85% in [31]; 43% in series [32]; 75.5% in series [33]; 54.6% in [34]. The inhibition at 20 µg/mL in series [35] turned out to be 54%.
